Laboratory results as given in the NIST ThermoML archive (doi:10.1016/j.jct.2013.09.041).

Legend:
[1] = 323.15 K, 101.33 kPa, Liquid; for speed of sound: Sing-around technique in a fixed-path interferometer; for mass density: Vibrating tube method
[2] = mn = molality of the nth substance listed, in mol/kg; settings: 323.15 K, 101 kPa, Liquid, Vibrating tube method
[3] = osmotic coefficient (dimensionless); mn = molality of the nth substance listed, in mol/kg; settings: 323.15 K, 101 kPa, Liquid, A Knauer K-7000 vapor pressure osmometer

CCC(C)O (stereo unspecified) [butan-2-ol]
[1]
Settings	mass density [kg/m3]	speed of sound [m/s]
–	780.4	1120.2

CCCCO [butan-1-ol]
[1]
Settings	mass density [kg/m3]	speed of sound [m/s]
–	786.32	1157.3

CCCCCCn1cc[n+](C)c1.O=S(=O)([O-])C(F)(F)F [1-hexyl-3-methylimidazolium trifluoromethanesulfonate] + CCCO
Settings	mass density, [2] [kg/m3]	osmotic coefficient, [3]
m1 = 0.025	–	0.964
m1 = 0.051	783.95	0.866
m1 = 0.087	–	0.796
m1 = 0.102	788.64	–
m1 = 0.153	793.14	–
m1 = 0.214	–	0.685
m1 = 0.234	800.17	–
m1 = 0.296	805.3	–
m1 = 0.306	806.08	–
m1 = 0.308	–	0.645
m1 = 0.355	810.02	–
m1 = 0.401	813.72	–
m1 = 0.411	–	0.585
m1 = 0.448	817.38	–
m1 = 0.518	822.69	0.547
m1 = 0.62	830.19	–
m1 = 0.707	836.34	–
m1 = 0.804	843.03	–
m1 = 0.815	–	0.494
m1 = 0.905	849.7	–
m1 = 1.012	856.34	–
m1 = 1.223	–	0.462
m1 = 1.614	–	0.427
m1 = 2.029	–	0.408
m1 = 2.416	–	0.392
m1 = 2.82	–	0.373
m1 = 3.493	–	0.361

CCCCCCn1cc[n+](C)c1.O=S(=O)([O-])C(F)(F)F [1-hexyl-3-methylimidazolium trifluoromethanesulfonate] + CCCCO
Settings	mass density [kg/m3]	osmotic coefficient
[2], m1 = 0.052	791.18	–
[2], m1 = 0.103	795.76	–
[2], m1 = 0.152	799.99	–
[2], m1 = 0.202	804.23	–
[2], m1 = 0.254	808.45	–
[2], m1 = 0.303	812.46	–
[2], m1 = 0.353	816.43	–
[2], m1 = 0.405	820.46	–
[2], m1 = 0.448	823.73	–
[2], m1 = 0.504	827.88	–
[2], m1 = 0.598	834.75	–
[2], m1 = 0.701	841.92	–
[2], m1 = 0.792	848.08	–
[2], m1 = 0.906	855.49	–
[2], m1 = 1.01	861.88	–
[3], m1 = 0.028	–	0.828
[3], m1 = 0.045	–	0.721
[3], m1 = 0.114	–	0.599
[3], m1 = 0.198	–	0.543
[3], m1 = 0.302	–	0.482
[3], m1 = 0.427	–	0.453
[3], m1 = 0.526	–	0.434
[3], m1 = 0.81	–	0.399
[3], m1 = 1.224	–	0.356
[3], m1 = 1.64	–	0.339
[3], m1 = 2.045	–	0.329
[3], m1 = 2.417	–	0.313
[3], m1 = 2.827	–	0.298
[3], m1 = 3.312	–	0.282

CCCCCO [pentan-1-ol]
[1]
Settings	mass density [kg/m3]	speed of sound [m/s]
–	792.14	1192.9

CCCCCCn1cc[n+](C)c1.O=S(=O)([O-])C(F)(F)F [1-hexyl-3-methylimidazolium trifluoromethanesulfonate] + CC(C)O
Settings	mass density [kg/m3]	osmotic coefficient
[2], m1 = 0.051	763.8	–
[2], m1 = 0.102	768.55	–
[2], m1 = 0.152	773.15	–
[2], m1 = 0.204	777.8	–
[2], m1 = 0.252	782.08	–
[2], m1 = 0.301	786.21	–
[2], m1 = 0.355	790.72	–
[2], m1 = 0.404	794.75	–
[2], m1 = 0.455	798.81	–
[2], m1 = 0.504	802.65	–
[2], m1 = 0.606	810.57	–
[2], m1 = 0.709	818.13	–
[2], m1 = 0.802	824.81	–
[2], m1 = 0.908	831.9	–
[2], m1 = 1.012	838.62	–
[3], m1 = 0.026	–	0.991
[3], m1 = 0.043	–	0.954
[3], m1 = 0.1	–	0.886
[3], m1 = 0.2	–	0.758
[3], m1 = 0.305	–	0.659
[3], m1 = 0.412	–	0.616
[3], m1 = 0.526	–	0.585
[3], m1 = 0.819	–	0.538
[3], m1 = 1.221	–	0.476
[3], m1 = 1.62	–	0.444
[3], m1 = 2.033	–	0.42
[3], m1 = 2.449	–	0.387
[3], m1 = 2.822	–	0.378
[3], m1 = 3.344	–	0.364
[3], m1 = 3.646	–	0.359

CCCCCCn1cc[n+](C)c1.O=S(=O)([O-])C(F)(F)F [1-hexyl-3-methylimidazolium trifluoromethanesulfonate] + CCCCCO
Settings	mass density [kg/m3]	osmotic coefficient
[2], m1 = 0.05	796.7	–
[2], m1 = 0.1	801.05	–
[2], m1 = 0.151	805.37	–
[2], m1 = 0.202	809.6	–
[2], m1 = 0.254	813.84	–
[2], m1 = 0.3	817.52	–
[2], m1 = 0.401	825.41	–
[2], m1 = 0.498	832.62	–
[2], m1 = 0.61	840.59	–
[2], m1 = 0.705	847.05	–
[2], m1 = 0.803	853.55	–
[2], m1 = 0.849	856.48	–
[2], m1 = 1	865.7	–
[3], m1 = 0.053	–	0.784
[3], m1 = 0.084	–	0.599
[3], m1 = 0.108	–	0.51
[3], m1 = 0.194	–	0.44
[3], m1 = 0.313	–	0.392
[3], m1 = 0.415	–	0.345
[3], m1 = 0.512	–	0.331
[3], m1 = 0.829	–	0.299
[3], m1 = 1.216	–	0.293
[3], m1 = 1.64	–	0.276
[3], m1 = 2.047	–	0.27
[3], m1 = 2.461	–	0.255
[3], m1 = 2.845	–	0.244
[3], m1 = 3.322	–	0.226

CCCCCCn1cc[n+](C)c1.O=S(=O)([O-])C(F)(F)F [1-hexyl-3-methylimidazolium trifluoromethanesulfonate] + CCC(C)O
Settings	mass density [kg/m3]	osmotic coefficient
[2], m1 = 0.052	785.45	–
[2], m1 = 0.102	789.95	–
[2], m1 = 0.153	794.44	–
[2], m1 = 0.203	798.75	–
[2], m1 = 0.302	806.95	–
[2], m1 = 0.352	810.99	–
[2], m1 = 0.403	815.07	–
[2], m1 = 0.45	818.65	–
[2], m1 = 0.5029	822.68	–
[2], m1 = 0.597	829.6	–
[2], m1 = 0.7	836.92	–
[2], m1 = 0.797	843.69	–
[2], m1 = 0.907	850.73	–
[2], m1 = 1.002	856.64	–
[3], m1 = 0.056	–	0.823
[3], m1 = 0.079	–	0.797
[3], m1 = 0.107	–	0.76
[3], m1 = 0.215	–	0.626
[3], m1 = 0.296	–	0.576
[3], m1 = 0.401	–	0.513
[3], m1 = 0.513	–	0.487
[3], m1 = 0.809	–	0.426
[3], m1 = 1.206	–	0.393
[3], m1 = 1.608	–	0.38
[3], m1 = 2.032	–	0.362
[3], m1 = 2.426	–	0.351
[3], m1 = 2.776	–	0.342
[3], m1 = 3.311	–	0.337
[3], m1 = 3.703	–	0.332

CC(C)O [propan-2-ol]
[1]
Settings	mass density [kg/m3]	speed of sound [m/s]
–	758.63	1050.9

CCCO [propan-1-ol]
[1]
Settings	mass density [kg/m3]	speed of sound [m/s]
–	779.09	1121.8

CCCCCCn1cc[n+](C)c1.O=S(=O)([O-])C(F)(F)F [1-hexyl-3-methylimidazolium trifluoromethanesulfonate]
[1]
Settings	mass density [kg/m3]	speed of sound [m/s]
–	1217.24	1327.2
